Measurements taken from ChEMBL document CHEMBL1139688, “3,4,5-Trisubstituted isoxazoles as novel PPARdelta agonists. Part 2” (Bioorg Med Chem Lett, 2006).

Biological target: T1, Peroxisome proliferator-activated receptor alpha (Homo sapiens, UniProt Q07869)
T1 sequence (Q07869 whole entry): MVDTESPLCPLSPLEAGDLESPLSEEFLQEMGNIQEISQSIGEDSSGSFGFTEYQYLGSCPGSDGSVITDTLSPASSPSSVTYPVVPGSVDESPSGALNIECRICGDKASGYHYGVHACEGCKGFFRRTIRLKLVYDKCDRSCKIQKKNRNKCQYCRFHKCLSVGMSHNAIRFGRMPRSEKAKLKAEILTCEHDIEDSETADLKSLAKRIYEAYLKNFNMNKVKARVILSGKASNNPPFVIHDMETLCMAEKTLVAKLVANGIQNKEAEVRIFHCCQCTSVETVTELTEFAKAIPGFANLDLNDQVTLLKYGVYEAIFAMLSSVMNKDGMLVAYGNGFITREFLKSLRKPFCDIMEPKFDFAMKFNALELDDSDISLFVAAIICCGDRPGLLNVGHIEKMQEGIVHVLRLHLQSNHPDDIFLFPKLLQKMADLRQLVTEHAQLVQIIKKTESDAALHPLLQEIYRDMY
Assay: Activity at human PPAR alpha by cell-based transactivation assay
Conditions: not given

Row | Structure (SMILES) | EC50 [µM]
1 | O=C(O)Cc1ccc(OCc2noc(-c3ccccc3)c2C(=O)NCCOc2ccc(Cl)cc2Cl)c(Cl)c1 | > 10
2 | COc1ccc(CC(=O)O)cc1-c1noc(-c2ccccc2)c1C(=O)NCCOc1ccc(Cl)cc1Cl | > 10
3 | Cc1cc(-c2noc(-c3ccccc3)c2C(=O)NCCOc2ccc(Cl)cc2Cl)ccc1OCC(=O)O | > 10
4 | O=C(O)Cc1cccc(-c2noc(-c3ccco3)c2C(=O)NCCOc2ccc(Cl)cc2Cl)c1 | > 10

Second part, the molecule after the results:

Row | EC50 [µM] | Structure (SMILES)
5 | > 10 | O=C(O)Cc1ccc(-c2noc(-c3ccccc3)c2C(=O)NCCOc2ccc(Cl)cc2Cl)cc1
6 | > 10 | O=C(O)c1ccc(-c2noc(-c3ccccc3)c2C(=O)NCCOc2ccc(Cl)cc2Cl)cc1

Biological target: T2, Peroxisome proliferator-activated receptor gamma (Homo sapiens, UniProt P37231)
T2 sequence (P37231 whole entry): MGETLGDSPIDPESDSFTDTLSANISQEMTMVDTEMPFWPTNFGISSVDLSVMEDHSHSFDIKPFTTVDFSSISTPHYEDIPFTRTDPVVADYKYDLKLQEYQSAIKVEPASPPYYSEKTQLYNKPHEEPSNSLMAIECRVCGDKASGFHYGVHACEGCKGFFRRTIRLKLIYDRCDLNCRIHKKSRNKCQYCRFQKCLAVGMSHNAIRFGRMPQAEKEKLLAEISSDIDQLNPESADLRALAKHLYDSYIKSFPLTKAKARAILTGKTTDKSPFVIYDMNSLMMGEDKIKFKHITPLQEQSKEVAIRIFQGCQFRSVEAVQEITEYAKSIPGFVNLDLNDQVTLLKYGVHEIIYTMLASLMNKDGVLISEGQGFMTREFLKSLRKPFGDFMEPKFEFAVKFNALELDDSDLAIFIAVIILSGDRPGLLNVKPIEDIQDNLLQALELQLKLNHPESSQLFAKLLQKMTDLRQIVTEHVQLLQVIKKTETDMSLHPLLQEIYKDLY
Assay: Activity at human PPAR gamma by cell-based transactivation assay
Conditions: not given

Row | Structure (SMILES) | EC50 [µM]
7 | O=C(O)Cc1ccc(OCc2noc(-c3ccccc3)c2C(=O)NCCOc2ccc(Cl)cc2Cl)c(Cl)c1 | > 10
8 | COc1ccc(CC(=O)O)cc1-c1noc(-c2ccccc2)c1C(=O)NCCOc1ccc(Cl)cc1Cl | > 10
9 | Cc1cc(-c2noc(-c3ccccc3)c2C(=O)NCCOc2ccc(Cl)cc2Cl)ccc1OCC(=O)O | > 10
10 | O=C(O)Cc1cccc(-c2noc(-c3ccco3)c2C(=O)NCCOc2ccc(Cl)cc2Cl)c1 | > 10

Continued, values first:

Row | EC50 [µM] | Structure (SMILES)
11 | > 10 | O=C(O)Cc1ccc(-c2noc(-c3ccccc3)c2C(=O)NCCOc2ccc(Cl)cc2Cl)cc1
12 | > 10 | O=C(O)c1ccc(-c2noc(-c3ccccc3)c2C(=O)NCCOc2ccc(Cl)cc2Cl)cc1

Biological target: T3, Peroxisome proliferator-activated receptor delta (Homo sapiens, UniProt Q03181)
T3 sequence (Q03181 whole entry): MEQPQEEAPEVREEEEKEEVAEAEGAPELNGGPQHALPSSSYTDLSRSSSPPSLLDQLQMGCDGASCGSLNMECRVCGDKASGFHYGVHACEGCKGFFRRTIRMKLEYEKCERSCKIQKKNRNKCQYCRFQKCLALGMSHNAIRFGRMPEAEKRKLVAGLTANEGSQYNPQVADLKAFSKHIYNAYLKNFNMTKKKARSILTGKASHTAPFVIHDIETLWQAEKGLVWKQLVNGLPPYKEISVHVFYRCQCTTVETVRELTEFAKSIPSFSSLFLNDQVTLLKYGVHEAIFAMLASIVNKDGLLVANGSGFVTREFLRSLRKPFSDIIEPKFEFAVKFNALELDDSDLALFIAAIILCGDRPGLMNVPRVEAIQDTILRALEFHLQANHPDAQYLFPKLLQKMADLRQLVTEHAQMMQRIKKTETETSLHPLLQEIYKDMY
Assay: Activity at human PPAR delta by cell-based transactivation assay
Conditions: not given

Row | Structure (SMILES) | EC50 [µM]
13 | O=C(O)Cc1ccc(OCc2noc(-c3ccccc3)c2C(=O)NCCOc2ccc(Cl)cc2Cl)c(Cl)c1 | > 10
14 | COc1ccc(CC(=O)O)cc1-c1noc(-c2ccccc2)c1C(=O)NCCOc1ccc(Cl)cc1Cl | 0.56
15 | Cc1cc(-c2noc(-c3ccccc3)c2C(=O)NCCOc2ccc(Cl)cc2Cl)ccc1OCC(=O)O | 0.2
16 | O=C(O)Cc1cccc(-c2noc(-c3ccco3)c2C(=O)NCCOc2ccc(Cl)cc2Cl)c1 | 0.09

Second part, the molecule after the results:

Row | EC50 [µM] | Structure (SMILES)
17 | 0.72 | O=C(O)Cc1ccc(-c2noc(-c3ccccc3)c2C(=O)NCCOc2ccc(Cl)cc2Cl)cc1
18 | > 10 | O=C(O)c1ccc(-c2noc(-c3ccccc3)c2C(=O)NCCOc2ccc(Cl)cc2Cl)cc1

Tested on: not listed separately
Assay: Cmax in C57BL/6 mouse at 20 mg/kg, po
Format: ADME, organism-based
Design: dose 20 mg/kg, route oral
Conditions: in vivo

Row | Cmax [nM] | Structure (SMILES)
19 | < 300 | Cc1cc(-c2noc(-c3ccccc3)c2C(=O)NCCOc2ccc(Cl)cc2Cl)ccc1OCC(=O)O
20 | < 300 | O=C(O)Cc1cccc(-c2noc(-c3ccco3)c2C(=O)NCCOc2ccc(Cl)cc2Cl)c1

Tested on: not listed separately
Assay: Half life in C57BL/6 mouse at 20 mg/kg, po
Format: ADME, organism-based
Design: dose 20 mg/kg, route oral
Conditions: in vivo

Row | half-life [min] | Structure (SMILES)
21 | < 30 | Cc1cc(-c2noc(-c3ccccc3)c2C(=O)NCCOc2ccc(Cl)cc2Cl)ccc1OCC(=O)O
22 | < 30 | O=C(O)Cc1cccc(-c2noc(-c3ccco3)c2C(=O)NCCOc2ccc(Cl)cc2Cl)c1

Tested on: not listed separately
Assay: Stability in mouse liver microsomes
Format: ADME, Microsome
Conditions: not given

Row | Structure (SMILES) | Stability
23 | O=C(O)Cc1ccc(OCc2noc(-c3ccccc3)c2C(=O)NCCOc2ccc(Cl)cc2Cl)c(Cl)c1 | Stable
24 | COc1ccc(CC(=O)O)cc1-c1noc(-c2ccccc2)c1C(=O)NCCOc1ccc(Cl)cc1Cl | Stable
25 | Cc1cc(-c2noc(-c3ccccc3)c2C(=O)NCCOc2ccc(Cl)cc2Cl)ccc1OCC(=O)O | Stable
26 | O=C(O)Cc1cccc(-c2noc(-c3ccco3)c2C(=O)NCCOc2ccc(Cl)cc2Cl)c1 | Stable

Continued, values first:

Row | Stability | Structure (SMILES)
27 | Stable | O=C(O)Cc1ccc(-c2noc(-c3ccccc3)c2C(=O)NCCOc2ccc(Cl)cc2Cl)cc1
28 | Stable | O=C(O)c1ccc(-c2noc(-c3ccccc3)c2C(=O)NCCOc2ccc(Cl)cc2Cl)cc1

Tested on: Liver microsomes
Assay: Stability in rat liver microsomes
Format: ADME, Microsome
Conditions: not given

Row | Structure (SMILES) | Stability
29 | O=C(O)Cc1ccc(OCc2noc(-c3ccccc3)c2C(=O)NCCOc2ccc(Cl)cc2Cl)c(Cl)c1 | Stable
30 | COc1ccc(CC(=O)O)cc1-c1noc(-c2ccccc2)c1C(=O)NCCOc1ccc(Cl)cc1Cl | Stable
31 | Cc1cc(-c2noc(-c3ccccc3)c2C(=O)NCCOc2ccc(Cl)cc2Cl)ccc1OCC(=O)O | Stable
32 | O=C(O)Cc1cccc(-c2noc(-c3ccco3)c2C(=O)NCCOc2ccc(Cl)cc2Cl)c1 | Stable

Next, values leading:

Row | Stability | Structure (SMILES)
33 | Stable | O=C(O)Cc1ccc(-c2noc(-c3ccccc3)c2C(=O)NCCOc2ccc(Cl)cc2Cl)cc1
34 | Stable | O=C(O)c1ccc(-c2noc(-c3ccccc3)c2C(=O)NCCOc2ccc(Cl)cc2Cl)cc1

Tested on: Liver microsomes
Assay: Stability in human liver microsomes
Format: ADME, Microsome
Conditions: not given

Row | Structure (SMILES) | Stability
35 | O=C(O)Cc1ccc(OCc2noc(-c3ccccc3)c2C(=O)NCCOc2ccc(Cl)cc2Cl)c(Cl)c1 | Stable
36 | COc1ccc(CC(=O)O)cc1-c1noc(-c2ccccc2)c1C(=O)NCCOc1ccc(Cl)cc1Cl | Stable
37 | Cc1cc(-c2noc(-c3ccccc3)c2C(=O)NCCOc2ccc(Cl)cc2Cl)ccc1OCC(=O)O | Stable
38 | O=C(O)Cc1cccc(-c2noc(-c3ccco3)c2C(=O)NCCOc2ccc(Cl)cc2Cl)c1 | Stable

Now from value to molecule:

Row | Stability | Structure (SMILES)
39 | Stable | O=C(O)Cc1ccc(-c2noc(-c3ccccc3)c2C(=O)NCCOc2ccc(Cl)cc2Cl)cc1
40 | Stable | O=C(O)c1ccc(-c2noc(-c3ccccc3)c2C(=O)NCCOc2ccc(Cl)cc2Cl)cc1
